Measurements as given in patent publication US20260001847A1, “HERBICIDAL QUINOLONE DERIVATIVES” (SYNGENTA CROP PROTECTION AG, priority 2022, published 2026).
Marks after values point to notes of the source that are not given here.

What was measured:
Assay type in all cases: in vivo
[1] = test system: Echinochloa crus-galli (ECHCG); test: Pre-emergence Test; conditions: 1000 g/ha, evaluated after 13 days
Setaria faberi (SETFA) [2] = test: Pre-emergence Test; conditions: 1000 g/ha, evaluated after 13 days
Zea mays (ZEAMX) [3] = test: Pre-emergence Test; conditions: 1000 g/ha, evaluated after 13 days
[4] = test system: Amaranthus palmeri (AMAPA); test: Post-emergence Test; conditions: evaluated after 13 days
Description: (§1) Seeds of a variety of test species are sown in standard soil in pots (Abutilon theophrasti (ABUTH), Ipomoea hederacea (IPOHE). Setaria faberi (SETFA), Echinochloa crus-galli (ECHCG), Zea mays (ZEAMX), Amaranthus retoflexus (AMARE), Solanum nigrum (SOLNI), Lolium perenne (LOLPE), Amaranthus palmeri (AMAPA)). After 8 days cultivation under controlled conditions in a glasshouse (at 24° C./16° C., day/night-; 14 hours light; 65% humidity), the plants are sprayed with an aqueous spray solution derived from the formulation of the technical active ingredient in acetone/water (50:50) solution containing 0.5% Tween 20 (polyoxyethylene sorbitan monolaurate, CAS RN 9005-64-5). Compounds are applied at 1000 g/ha unless otherwise stated. The test plants are then grown in a glasshouse under controlled conditions in a glasshouse (at 24° C./16° C., day/night; 14 hours light; 65% humidity) and watered twice daily. After 13 days the test is evaluated for the percentage damage caused to the plant. The biological activities are shown in the following table on a five-point scale (5=81-100%; 4=61-80%; 3=41-60%; 2=21-40%; 1=0-20%; -=not tested).

[5] = test system: Ipomoea hederacea (IPOHE); test: Post-emergence Test; conditions: evaluated after 13 days
Description: as §1

Setaria faberi (SETFA) [6] = test: Post-emergence Test; conditions: evaluated after 13 days
Description: as §1

Zea mays (ZEAMX) [7] = test: Post-emergence Test; conditions: evaluated after 13 days
Description: as §1

[8] = test system: Amaranthus retoflexus (AMARE); test: Post-emergence Test; conditions: evaluated after 13 days
Description: as §1

[9] = test system: Echinochloa crus-galli (ECHCG); test: Post-emergence Test; conditions: evaluated after 13 days
Description: as §1

[10] = test system: Ipomoea hederacea (IPOHE); test: Pre-emergence Test; conditions: evaluated after 13 days
[11] = test system: Amaranthus palmeri (AMAPA); test: Pre-emergence Test; conditions: evaluated after 13 days
[12] = test system: Amaranthus retoflexus (AMARE); test: Pre-emergence Test; conditions: evaluated after 13 days

Structure (SMILES) | percentage damage caused to the plant, ECHCG [1] | percentage damage caused to the plant, SETFA (Setaria faberi (SETFA) [2]) | percentage damage caused to the plant, ZEAMX (Zea mays (ZEAMX) [3]) | percentage damage caused to the plant, AMAPA ([4]; 1000 g/ha) | percentage damage caused to the plant, IPOHE ([5]; 1000 g/ha) | percentage damage caused to the plant, SETFA (Setaria faberi (SETFA) [6]; 1000 g/ha) | percentage damage caused to the plant, ZEAMX (Zea mays (ZEAMX) [7]; 1000 g/ha) | percentage damage caused to the plant, AMARE ([8]; 1000 g/ha) | percentage damage caused to the plant, ECHCG ([9]; 1000 g/ha) | percentage damage caused to the plant, IPOHE ([10]; 1000 g/ha) | also measured
CCn1c(-c2ccc(Cl)c(Cl)c2)c(C(=O)O)c(=O)c2cc(-c3ccc(F)cc3)ccc21 [Compound 9, 2-(3,4-dichlorophenyl)-1-ethyl-6-(4-fluorophenyl)-4-oxo-quinoline-3-carboxylic acid] | 3 (3=41-60%) | 4 (4=61-80%) | 1 (1=0-20%) | 2 (2=21-40%) | 2 (2=21-40%) | 0 | 0 | 2 (2=21-40%) | 0 | 1 (1=0-20%) | –
CCn1c(-c2ccc(Cl)c(Cl)c2)c(C(=O)O)c(=O)c2cc(Br)ccc21 [Compound 8, 6-bromo-2-(3,4-dichlorophenyl)-1-ethyl-4-oxo-quinoline-3-carboxylic acid] | 5 (5=81-100%) | 5 (5=81-100%) | 2 (2=21-40%) | 1 (1=0-20%) | 4 (4=61-80%) | 4 (4=61-80%) | 4 (4=61-80%) | 0 | 4 (4=61-80%) | 1 (1=0-20%) | percentage damage caused to the plant, AMAPA ([11]; 1000 g/ha): 2 (2=21-40%); percentage damage caused to the plant, AMARE ([12]; 1000 g/ha): 1 (1=0-20%)
CCn1c(-c2ccc(Cl)c(Cl)c2)c(C(=O)O)c(=O)c2cc(F)ccc21 [Compound 6, 2-(3,4-dichlorophenyl)-1-ethyl-6-fluoro-4-oxo-quinoline-3-carboxylic acid] | 5 (5=81-100%) | 5 (5=81-100%) | 0 | 3 (3=41-60%) | 3 (3=41-60%) | 4 (4=61-80%) | 4 (4=61-80%) | 1 (1=0-20%) | 4 (4=61-80%) | 0 | –
CCn1c(-c2ccc(Cl)c(Cl)c2)c(C(=O)O)c(=O)c2c(C#N)cccc21 [Compound 17, 5-cyano-2-(3,4-dichlorophenyl)-1-ethyl-4-oxo-quinoline-3-carboxylic acid] | – | – | – | – | – | – | – | – | – | – | percentage damage caused to the plant, AMAPA ([11]; 250 g/ha): 1* (1=0-20%); percentage damage caused to the plant, AMAPA ([4]; 250 g/ha): 2* (2=21-40%); percentage damage caused to the plant, IPOHE ([5]; 250 g/ha): 2* (2=21-40%); percentage damage caused to the plant, SETFA (Setaria faberi (SETFA) [6]; 250 g/ha): 1* (1=0-20%); percentage damage caused to the plant, ZEAMX (Zea mays (ZEAMX) [7]; 250 g/ha): 0*; percentage damage caused to the plant, AMARE ([8]; 250 g/ha): 2* (2=21-40%); percentage damage caused to the plant, ECHCG ([9]; 250 g/ha): 1* (1=0-20%); percentage damage caused to the plant, IPOHE ([10]; 250 g/ha): 1* (1=0-20%); percentage damage caused to the plant, AMARE ([12]; 250 g/ha): 1* (1=0-20%)
CCn1c(-c2ccc(Cl)c(Cl)c2)c(C(=O)O)c(=O)c2cc(C)ccc21 [Compound 14, 2-(3,4-dichlorophenyl)-1-ethyl-6-methyl-4-oxo-quinoline-3-carboxylic acid] | 4 (4=61-80%) | 4 (4=61-80%) | 2 (2=21-40%) | 5 (5=81-100%) | 3 (3=41-60%) | 3 (3=41-60%) | 2 (2=21-40%) | 5 (5=81-100%) | 3 (3=41-60%) | 2 (2=21-40%) | percentage damage caused to the plant, AMAPA ([11]; 1000 g/ha): 5 (5=81-100%); percentage damage caused to the plant, AMARE ([12]; 1000 g/ha): 5 (5=81-100%)
CCn1c(-c2ccc(Cl)c(Cl)c2)c(C(=O)O)c(=O)c2cc(C(F)(F)F)ccc21 [Compound 16, 2-(3,4-dichlorophenyl)-1-ethyl-4-oxo-6-(trifluoromethyl)quinoline-3-carboxylic acid] | 5 (5=81-100%) | 5 (5=81-100%) | 1 (1=0-20%) | 0 | 2 (2=21-40%) | 4 (4=61-80%) | 3 (3=41-60%) | 0 | 4 (4=61-80%) | 1 (1=0-20%) | percentage damage caused to the plant, AMARE ([12]; 1000 g/ha): 1 (1=0-20%)
CC(=O)c1cccc2c1c(=O)c(C(=O)O)cn2-c1ccc(OC(F)(F)F)cc1 [Compound 19, 5-acetyl-4-oxo-1-[4-(trifluoromethoxy)phenyl]quinoline-3-carboxylic acid] | 3 (3=41-60%) | 3 (3=41-60%) | 0 | 2 (2=21-40%) | 1 (1=0-20%) | 3 (3=41-60%) | 3 (3=41-60%) | 0 | 4 (4=61-80%) | 0 | –
CCn1c(-c2ccc(Cl)c(Cl)c2)c(C(=O)O)c(=O)c2cc(C(N)=O)ccc21 [Compound 10, 6-carbamoyl-2-(3,4-dichlorophenyl)-1-ethyl-4-oxo-quinoline-3-carboxylic acid] | 0 | 0 | 2 (2=21-40%) | 4 (4=61-80%) | 1 (1=0-20%) | 4 (4=61-80%) | 2 (2=21-40%) | 2 (2=21-40%) | – | 0 | –
CCn1c(-c2ccc(Cl)c(Cl)c2)c(C(=O)O)c(=O)c2cc(C#N)ccc21 [Compound 7, 6-cyano-2-(3,4-dichlorophenyl)-1-ethyl-4-oxo-quinoline-3-carboxylic acid] | 5 (5=81-100%) | 5 (5=81-100%) | 3 (3=41-60%) | 4 (4=61-80%) | 2 (2=21-40%) | 4 (4=61-80%) | 3 (3=41-60%) | 3 (3=41-60%) | – | 1 (1=0-20%) | –
CCn1c(-c2ccc(Cl)c(Cl)c2)c(C(=O)O)c(=O)c2ccc(C(F)(F)F)cc21 [Compound 13, 2-(3,4-dichlorophenyl)-1-ethyl-4-oxo-7-(trifluoromethyl)quinoline-3-carboxylic acid] | 0 | 0 | 0 | 1 (1=0-20%) | 0 | 1 (1=0-20%) | 1 (1=0-20%) | 2 (2=21-40%) | 2 (2=21-40%) | 0 | –
CCn1c(-c2ccc(Cl)c(Cl)c2)c(C(=O)O)c(=O)c2cc(Cl)ccc21 [Compound 5, 6-chloro-2-(3,4-dichlorophenyl)-1-ethyl-4-oxo-quinoline-3-carboxylic acid] | 0 | 2 (2=21-40%) | 1 (1=0-20%) | 1 (1=0-20%) | 1 (1=0-20%) | 4 (4=61-80%) | 2 (2=21-40%) | 1 (1=0-20%) | – | 0 | –
